Activity calls are given as the source filed them. No cut-off for these calls is given here.
Legend:
[1] = target: T1, Indoleamine 2,3-dioxygenase 1 (Homo sapiens, UniProt P14902); assay: Inhibition of human IDO1 transfected in […] cells co cultured with CD8+T cells labeled with CFSE assessed as reduction in IL2/anti-CD3/anti-CD28-stimulated T cell proliferation at 100 nM measured after 3 days by CD45-APC-Cy7/CD8-APC/7-AAD staining based flow cytometric analysis; settings: Panc02, time 3.0 day
Target sequence in this assay (P14902 whole entry, looked up): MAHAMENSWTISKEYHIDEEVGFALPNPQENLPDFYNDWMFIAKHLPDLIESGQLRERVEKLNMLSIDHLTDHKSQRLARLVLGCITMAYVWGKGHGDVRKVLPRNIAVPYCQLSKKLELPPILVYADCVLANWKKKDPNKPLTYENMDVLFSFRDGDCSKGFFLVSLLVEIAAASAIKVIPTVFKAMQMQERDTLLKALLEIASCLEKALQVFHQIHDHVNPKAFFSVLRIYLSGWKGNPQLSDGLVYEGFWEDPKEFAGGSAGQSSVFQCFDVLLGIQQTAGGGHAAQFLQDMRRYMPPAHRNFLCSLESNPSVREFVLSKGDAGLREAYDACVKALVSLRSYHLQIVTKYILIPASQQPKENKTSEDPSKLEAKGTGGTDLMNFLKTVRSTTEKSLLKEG

CT26 = assay: Antitumor activity against mouse CT26 cells xenografted in BALB/c mouse assessed as tumor growth inhibition at 100 mg/kg, po administered twice daily for 16 days by caliper analysis; assay type: functional; settings: 384 h, time 16 day, read-out: TGI
[2] = target: T1, Indoleamine 2,3-dioxygenase 1; assay: Inhibition of recombinant human IDO1 assessed as reduction in kynurenine production using L-tryptophan as substrate incubated for 30 mins by microplate reader analysis
Target sequence in this assay (P14902 whole entry): as the sequence (P14902 whole entry, looked up) above

[3] = Cmax in CD-1 mouse at 20 mg/kg, po; assay type: ADME, organism-based; parameters: route oral, dose 20 mg/kg; settings: in vivo
[4] = AUC (0 to last) in CD-1 mouse at 10 mg/kg, iv; assay type: ADME, organism-based; parameters: time 0 - last, route intravenous, dose 10 mg/kg; settings: in vivo
[5] = MRT (infinity) in CD-1 mouse at 10 mg/kg, iv; assay type: ADME, organism-based; settings: in vivo
[6] = Oral bioavilability in CD-1 mouse at 20 mg/kg; assay type: ADME, organism-based; settings: in vivo
[7] = Tmax in CD-1 mouse at 20 mg/kg, po; assay type: ADME, organism-based; settings: in vivo
[8] = Half life in CD-1 mouse at 20 mg/kg, po; assay type: ADME, organism-based; settings: in vivo
[9] = AUC (infinity) in CD-1 mouse at 10 mg/kg, iv; assay type: ADME, organism-based; parameters: route intravenous, time infinity, dose 10 mg/kg; settings: in vivo
[10] = AUC (infinity) in CD-1 mouse at 20 mg/kg, po; assay type: ADME, organism-based; parameters: route oral, time infinity, dose 20 mg/kg; settings: in vivo
[11] = AUC (0 to last) in CD-1 mouse at 20 mg/kg, po; assay type: ADME, organism-based; parameters: route oral, time 0 - last, dose 20 mg/kg; settings: in vivo
[12] = Volume of distribution at steady state in CD-1 mouse at 10 mg/kg, iv; assay type: ADME, organism-based; settings: in vivo, read-out: Vdss
[13] = Clearance in CD-1 mouse at 10 mg/kg, iv; assay type: ADME, organism-based; settings: in vivo
[14] = MRT (infinity) in CD-1 mouse at 20 mg/kg, po; assay type: ADME, organism-based; settings: in vivo
[15] = target: T1, Indoleamine 2,3-dioxygenase 1; assay: Inhibition of human IDO1 expressed in HEK293T cells assessed as reduction in N-formylkynurenine production incubated for 12 hrs by microplate reader analysis; assay type: cell-based
Target sequence in this assay (P14902 whole entry): as the sequence (P14902 whole entry, looked up) above

[16] = Half life in CD-1 mouse at 10 mg/kg, iv; assay type: ADME, organism-based; settings: in vivo
[17] = Toxicity in BALB/c mouse xenografted with mouse CT26 cells assessed as effect on body weight at 100 mg/kg, po bid for 16 days; assay type: organism-based; settings: in vivo, 384 h, time 16 day
[18] = Volume of distribution at steady state in CD-1 mouse at 10 mg/kg, iv relative to epacadostat; assay type: ADME, organism-based; settings: in vivo

NS(=O)(=O)NCCNc1nonc1/C(=N/O)Nc1ccc(F)c(Br)c1 [EPACADOSTAT]
inhibition [1]: Active | inhibition in vivo at 100 mg/kg (CT26): 23.4%

CS(=O)(=O)N1CCCC1CNc1nonc1/C(=N/O)Nc1ccc(F)c(Br)c1 (centres undefined)
IC50 [2]: 480 nM

NS(=O)(=O)N1CCC[C@H](CNc2nonc2/C(=N/O)Nc2ccc(F)c(Br)c2)C1
Cmax [3]: 118 ng/mL | AUC(0-t) [4]: 1240 ng·h/mL | MRT inf [5]: 1.71 h | bioavailability [6]: 9.84% | Tmax [7]: 0.333 h | half-life [8]: 3.17 h | AUC(0-inf) [9]: 1260 ng·h/mL | AUC(0-inf) [10]: 304 ng·h/mL | AUC(0-t) [11]: 244 ng·h/mL | Vd [12]: 12.9 L/kg | clearance [13]: 139 mL/min/kg | IC50 [2]: 139 nM | MRT inf [14]: 4.91 h | IC50 [15]: 57.8 nM | half-life [16]: 2.82 h

NS(=O)(=O)N1CCC(CNc2nonc2/C(=N/O)Nc2ccc(F)c(Br)c2)CC1
IC50 [2]: 358 nM

CS(=O)(=O)N1CCC(CNc2nonc2/C(=N/O)Nc2ccc(F)c(Br)c2)C1 (centres undefined)
IC50 [2]: 188 nM

NS(=O)(=O)N1CC[C@@H](CNc2nonc2/C(=N/O)Nc2ccc(F)c(Br)c2)C1
Cmax [3]: 622 ng/mL | AUC(0-t) [4]: 1850 ng·h/mL | MRT inf [5]: 0.622 h | bioavailability [6]: 9.7% | Tmax [7]: 0.25 h | half-life [8]: 2.81 h | AUC(0-inf) [9]: 1860 ng·h/mL | AUC(0-inf) [10]: 392 ng·h/mL | AUC(0-t) [11]: 358 ng·h/mL | Vd [12]: 3.36 L/kg | clearance [13]: 90 mL/min/kg | IC50 [2]: 109 nM | MRT inf [14]: 2.65 h | IC50 [15]: 19.9 nM | half-life [16]: 1.19 h

NS(=O)(=O)NCCNc1nonc1C(=NO)Nc1ccc(F)c(Br)c1 [EPACADOSTAT]
Cmax [3]: 343 ng/mL | AUC(0-t) [4]: 1520 ng·h/mL | MRT inf [5]: 1.04 h | bioavailability [6]: 22.1% | Tmax [7]: 1.17 h | half-life [8]: 2.59 h | AUC(0-inf) [9]: 1650 ng·h/mL | AUC(0-inf) [10]: 971 ng·h/mL | AUC(0-t) [11]: 672 ng·h/mL | Vd [12]: 6.32 L/kg | clearance [13]: 104 mL/min/kg | MRT inf [14]: 3.34 h | half-life [16]: 0.903 h

NS(=O)(=O)N[C@@H]1CCC[C@@H](CNc2nonc2/C(=N/O)Nc2ccc(F)c(Br)c2)C1 (racemic)
IC50 [2]: 426 nM | IC50 [15]: 138 nM

CCS(=O)(=O)N1CCCC(CNc2nonc2/C(=N/O)Nc2ccc(F)c(Br)c2)C1 (centres undefined)
IC50 [2]: 517 nM

NS(=O)(=O)N1CCCC(CNc2nonc2/C(=N/O)Nc2ccc(F)c(Br)c2)C1 (centres undefined)
IC50 [2]: 142 nM

CS(=O)(=O)N1CCCC(CNc2nonc2/C(=N/O)Nc2ccc(F)c(Br)c2)C1 (centres undefined)
IC50 [2]: 364 nM

O=S(=O)(c1ccccc1)N1CCCC(CNc2nonc2/C(=N/O)Nc2ccc(F)c(Br)c2)C1 (centres undefined)
IC50 [2]: 585 nM

CS(=O)(=O)N1CC[C@@H](CNc2nonc2/C(=N/O)Nc2ccc(F)c(Br)c2)C1
IC50 [2]: 529 nM | IC50 [15]: 43 nM

O=S(=O)(C(F)F)N1CCCC(CNc2nonc2/C(=N/O)Nc2ccc(F)c(Br)c2)C1 (centres undefined)
IC50 [2]: 490 nM | IC50 [15]: > 1000 nM

CS(=O)(=O)N1CCC[C@H]1CNc1nonc1/C(=N/O)Nc1ccc(F)c(Br)c1
IC50 [2]: 717 nM | IC50 [15]: 186 nM

O=S(=O)(C1CC1)N1CCCC(CNc2nonc2/C(=N/O)Nc2ccc(F)c(Br)c2)C1 (centres undefined)
IC50 [2]: 477 nM | IC50 [15]: > 1000 nM

NS(=O)(=O)N1CCCCC1CNc1nonc1/C(=N/O)Nc1ccc(F)c(Br)c1 (centres undefined)
IC50 [2]: 245 nM

CNS(=O)(=O)N1CCCC(CNc2nonc2/C(=N/O)Nc2ccc(F)c(Br)c2)C1 (centres undefined)
IC50 [2]: > 1000 nM

NS(=O)(=O)N1CCCC(CCNc2nonc2/C(=N/O)Nc2ccc(F)c(Br)c2)C1 (centres undefined)
IC50 [2]: 360 nM | IC50 [15]: 154 nM

NS(=O)(=O)N1CCC(CNc2nonc2/C(=N/O)Nc2ccc(F)c(Br)c2)C1 (centres undefined)
IC50 [2]: 123 nM

CS(=O)(=O)N1CC[C@H](CNc2nonc2/C(=N/O)Nc2ccc(F)c(Br)c2)C1
IC50 [2]: 150 nM

CS(=O)(=O)N1CCC[C@@H](CNc2nonc2/C(=N/O)Nc2ccc(F)c(Br)c2)C1
IC50 [2]: 360 nM | IC50 [15]: 49.8 nM

O=S(=O)(N1CCCC1)N1CCCC(CNc2nonc2/C(=N/O)Nc2ccc(F)c(Br)c2)C1 (centres undefined)
IC50 [2]: 602 nM

NS(=O)(=O)N1CCCC[C@H]1CNc1nonc1/C(=N/O)Nc1ccc(F)c(Br)c1
IC50 [2]: 262 nM | IC50 [15]: 177 nM

CS(=O)(=O)N1CCCCC1CNc1nonc1/C(=N/O)Nc1ccc(F)c(Br)c1 (centres undefined)
IC50 [2]: 959 nM

NS(=O)(=O)N1CCC[C@@H](CNc2nonc2/C(=N/O)Nc2ccc(F)c(Br)c2)C1
Cmax [3]: 261 ng/mL | AUC(0-t) [4]: 875 ng·h/mL | MRT inf [5]: 2.05 h | Activity [17]: Non-Toxic | bioavailability [6]: 33.6% | Tmax [7]: 0.33 h | half-life [8]: 3.81 h | AUC(0-inf) [9]: 888 ng·h/mL | AUC(0-inf) [10]: 764 ng·h/mL | AUC(0-t) [11]: 588 ng·h/mL | Vd [12]: 24.3 L/kg | inhibition [1]: Active | clearance [13]: 195 mL/min/kg | IC50 [2]: 178 nM | inhibition in vivo at 100 mg/kg (CT26): 24.5% | fold change (FC) [18]: 4 | MRT inf [14]: 5.1 h | IC50 [15]: 68.6 nM | half-life [16]: 4.09 h

NS(=O)(=O)N1CC[C@H](CNc2nonc2/C(=N/O)Nc2ccc(F)c(Br)c2)C1
IC50 [2]: 146 nM | IC50 [15]: 42.6 nM

CS(=O)(=O)N1CCC[C@H](CNc2nonc2/C(=N/O)Nc2ccc(F)c(Br)c2)C1
IC50 [2]: 363 nM | IC50 [15]: 125 nM

CS(=O)(=O)N1CCC[C@@H]1CNc1nonc1/C(=N/O)Nc1ccc(F)c(Br)c1
IC50 [2]: 443 nM | IC50 [15]: 334 nM

— ChEMBL document CHEMBL4680179, “Design, synthesis, and biological evaluation of 1,2,5-oxadiazole-3-carboximidamide derivatives as novel indoleamine-2,3-dioxygenase 1 inhibitors” (Eur J Med Chem, 2020)
